Data on three molecules can be found in US6083958A, “Anti-HIV composition containing imidazole derivative” (Shionogi & Co., Ltd., priority 1996, dated 2000).

By EC50 is commonly meant the midpoint of the concentration-response curve. For orientation: EC90 means the concentration at which the effect reaches the 90% level. Broadly, the inhibition is how much of the control response was suppressed.

The subject of one assay is V106A + F227L. Briefly: microbe, parasite or virus in culture. In kind it is cell-based, HIV. The note with it: Human immunodeficiency virus 1, MT4, 96 h. As for the experimental part: (§1) The mutant clones' cDNAs were transfected to SW480 cells. The produced mutant viruses were infected to MT-4 cells in the same method as described in Experiment 1 in the presence of the drug. After 4 days, viral growth was assayed using reverse transcriptase activity as a marker.

The subject of the next assay is F227C. Briefly: microbe, parasite or virus in culture. In kind it is cell-based, HIV. To be noted: Human immunodeficiency virus 1, MT4, 96 h. Here is the method: as §1
A further assay relates to NL432 (Wild strain). Description: microbe, parasite or virus in culture. In kind it is cell-based, HIV. To be noted: Human immunodeficiency virus 1, MT4, 96 h. As for the experimental part:
as §1

Another assay has as its system D67N + K70R. Briefly: microbe, parasite or virus in culture. In kind it is cell-based, HIV. Here is the method: as §1
The next assay deals with T215Y. Description: microbe, parasite or virus in culture. In kind it is cell-based, HIV. Here is the method:
as §1

The test system of the next assay is Y181C. Description: microbe, parasite or virus in culture. In kind it is cell-based, HIV. The note with it: Human immunodeficiency virus 1, MT4, 96 h. Here is the method:
as §1

In the next assay the test system is T215Y + L234I. Description: microbe, parasite or virus in culture. In kind it is cell-based, HIV. Here is the method: as §1
The subject of a further assay is L234I. Briefly: microbe, parasite or virus in culture. In kind it is cell-based, HIV. The note with it: Human immunodeficiency virus 1, MT4, 96 h. Here is the method: as §1
Assay [1] relates to CDIMI resistant or AZT resistant mutant clones of HIV. Description: Cross resistance of CDIMI resistant and AZT resistant mutant clones. In kind it is cell-based. Here is the method: as §1
The test system of assay [2] is HIV-1 IIIB strain clone 3. Description: Suppression of the emergence of drug resistant variants in M 8166 cells. In kind it is cell-based. To be noted: for Week of emergence of resistant mutants: CDIMI 1 ng/ml, ddC 50 ng/ml at start, doubled on viral growth; for Ratio of resistance compared to parent strain: isolated resistant virus vs parent strain. Here is the method: an T cell line Molt-4 cells persistently infected with HIV-1 (IIIB strain clone 3) were cultured in RPMI-1640 medium supplemented with 10% fetal calf serum, the supernatant was filtered and stored at […], after the virus titer was determined.
One ml of the above medium containing 10^6 cells of M 8166 was added to each well of 12-well plates, and 100 μl of the above HIV-1 IIIB strain clone 3 was added, and incubated for 2 hours for virus infection. Cells were washed with the above medium, and 4 ml of the medium containing CDIMI or other anti-HIV compounds alone or their combination was added to each well and incubated in 5% CO2 incubator at 37° C. CDIMI was added at 1 ng/ml and ddC was added at 50 ng/ml respectively and the same concentrations of them were added for the combination. Cells were subcultured twice a week, and when viral growth was observed, the drug concentration of the anti-HIV compound was doubled. In the case that no viral growth was observed, the drug concentration was kept the same as that of the last culture.
Virus titer was determined using viral reverse transcriptase activity as a marker by the following method.
To 100 μl of the reaction mixture containing 50 mM Tris-HCl, pH 8.3, 150 mM KCl, 10 mM MgCl2, 0.1% Nonidet P-40, 10 mM dithiothreitol, 5 μg/ml poly(A), 5 μg/ml (dT) 12-18, and 1 μCi [^3 H] dTTP was added 10 μl of the culture supernatant, and incubated at 37° C. for 3 hours. The reaction mixture was chilled on ice and collected by a cell harvester on a DEAE-Filtermat. The filter was washed with 5% Na2 HP04.12H2 O and H2 O, and the radioactivity incorporated in DNA was measured by an LKB Beta Plate scintillation counter to determine viral reverse transcriptase activity.
When virus growth was observed, viruses were isolated and the sensitivity to each active ingredient was assayed by the usual method.

The test system of assay [3] is HIV-1 (IIIB strain clone 2). Briefly: Synergy of anti-HIV activity, viral reverse transcriptase activity in supernatant of infected MT-4 cells (checker board). In kind it is cell-based.
Description: Human T cell line Molt-4 cells persistently infected with HIV-1 (IIIB strain clone 2) were cultured in RPMI-1640 medium supplemented with 10% fetal calf serum, and the supernatant was filtered and stored at -80° C. after the virus titer was determined.
The combination of these two drugs was conducted by the checker board method using 96-well microplates. […] After 4 hours, 50 μl of the culture supernatant of the above HIV-1 IIIB strain clone 2 was added, at the same time 50 μl of CDIMI in two-fold dilution was also added, followed by incubation in 5% CO2 incubator at 37° C. for 5 days.
Virus titers in the culture supernatant were calculated by taking viral reverse transcriptase activity as an index determined by the following method:
To 100 μl of a reaction mixture containing 50 mM Tris-HCl, pH 8.3, 150 mM KCl, 10 mM MgCl2, 0.1% Nonidet P-40, 10 mM dithiothreitol, 5 μg/l poly(A), 5 μg/ml (dT)12-18, and 1 μCi [^3 H]dTTP was added 10 μl of the culture supernatant, and incubated at 37° C. for 3 hours. The reaction mixture was chilled on ice and transferred by a cell harvester to a DEAE-Filtermat. The filter was washed with 5% Na2 HPO4.12H2 O and H2 O, and the radioactivity incorporated in DNA was measured by an LKB Beta Plate scintillation counter to determine viral reverse transcriptase activity.
On the assumption that the inhibition of the two anti-HIV compounds was additive, virus growth inhibition rate was calculated on all combinations of concentrations according to the formula (I)
wherein Z means an additive inhibition rate, X is an inhibition rate of CDIMI and Y is an inhibition rate of the other anti-HIV compound.
When the measured value is greater than the additive inhibition rate, namely, the value is more than 0 in Table 3, it is judged as having synergy. Synergy volume is designated as total sum of values more than 0 in Table 3.
Addition to cells of saquinavir and foscarnet was done at the same time as that of CDIMI when the virus was infected. […]
The mark [4] stands for this setting: Human immunodeficiency virus 1, MT4, 96 h.

Each structure is given as a SMILES string. In brackets after ≈: the same amount, converted by molar mass.

With `CC(C)c1nc(COC(N)=O)n(Cc2ccncc2)c1Sc1cc(Cl)cc(Cl)c1` [CDIMI, 2-carbamoyloxymethyl-5-(3,5-dichlorophenylthio)-4-iropropyl-1-(pyridin-4-yl) methyl-1H-imidazole], the EC50 in the assay with V106A + F227L was 117 ng/mL (≈ 259 nM); in the assay on F227C it was 2.4 ng/mL (≈ 5.32 nM); in the assay on NL432 (Wild strain), 0.31 ng/mL (≈ 0.687 nM); with D67N + K70R (setting [4]), 0.31 ng/mL (≈ 0.687 nM); in the assay on T215Y (setting [4]), 0.17 ng/mL (≈ 0.377 nM); in the assay on Y181C, 4.2 ng/mL (≈ 9.3 nM). The EC50 in the assay on T215Y + L234I (setting [4]) came out at 0.69 ng/mL (≈ 1.53 nM); with L234I it was 6.8 ng/mL (≈ 15.1 nM). The concentration for an effect of 90% (EC90) in the assay with V106A + F227L was found to be 310 ng/mL (≈ 687 nM); with F227C, 9.8 ng/mL (≈ 21.7 nM); in the assay on NL432 (Wild strain), 1.1 ng/mL (≈ 2.44 nM); in the assay with D67N + K70R (setting [4]), 1 ng/mL (≈ 2.22 nM); in the assay with T215Y (setting [4]) it was 0.4 ng/mL (≈ 0.886 nM); with Y181C, 18 ng/mL (≈ 39.9 nM). Besides, the figures for the EC90 in the assay on T215Y + L234I (setting [4]) and in the assay on L234I were 2.7 ng/mL (≈ 5.98 nM) and 14 ng/mL (≈ 31 nM), respectively. The sensitivity of strain entry was “equivalent to that of the wild strain” in the assay on D67N + K70R (D67N plus K70R); “equivalent to that of the wild strain” in the assay on T215Y (T215Y); “sensitive to CDIMI and AZT at the same level as the wild strain's” in the assay with T215Y + L234I (T215Y plus L234I). The cross resistance entry in assay [1] was “do not show cross resistance”. In addition, the “Week of emergence of resistant mutants” value in [2] was 4 weeks. Moreover, the “Ratio of resistance compared to parent strain” value in assay [2] is 10 times. The inhibition at 0.005 µg/mL in [3] (Human immunodeficiency virus 1, IIIB, MT4, read-out: inhibition rate X of CDIMI) is 99.6%. In assay [3] (ddI 0 ng/ml (Table 4), lines in order CDIMI 5, 2.5, 1.25, 0.625, 0.313, 0.16, 0.08 ng/ml, 7200 min), the “reverse transcriptase inhibition rate (%)” value was found to be 99.01%.

Turning to `Cc1cn([C@H]2C[C@H](N=[N+]=[N-])[C@@H](CO)O2)c(=O)[nH]c1=O` [AZT, azidodeoxythymidine, reference compound], in assay [3] (Human immunodeficiency virus 1, IIIB, MT4, read-out: inhibition rate Y of the other anti-HIV compound), the inhibition at 0.0008 µg/mL was found to be 43.4%.

For `Nc1ccn([C@H]2CC[C@@H](CO)O2)c(=O)n1` [ddC, dideoxycytidine, reference compound], in assay [2], the “Week of emergence of resistant mutants” value is given as 1 weeks and the “Ratio of resistance compared to parent strain” value is 20 times.
